The target of the assay is T1, human chemokine receptor CCR3 (Homo sapiens, UniProt P51677).
T1 construct: expressed in transfected cells; host or cells: K562 cell line (hCCR3-C1 cells), membrane preparation
T1 sequence (P51677 1-355): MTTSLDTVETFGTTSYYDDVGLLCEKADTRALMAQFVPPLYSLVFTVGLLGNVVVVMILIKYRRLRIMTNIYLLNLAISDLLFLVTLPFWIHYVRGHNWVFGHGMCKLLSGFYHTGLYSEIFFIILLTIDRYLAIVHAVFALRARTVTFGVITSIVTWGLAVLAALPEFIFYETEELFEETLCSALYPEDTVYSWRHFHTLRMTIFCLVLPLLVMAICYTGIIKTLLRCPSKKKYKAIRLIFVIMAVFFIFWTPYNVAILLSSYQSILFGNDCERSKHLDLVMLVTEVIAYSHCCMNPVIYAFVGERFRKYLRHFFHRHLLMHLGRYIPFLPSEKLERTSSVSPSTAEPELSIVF
Kind of assay: CCR3 receptor binding assay (SPA, 125I-eotaxin-1 displacement, hCCR3-C1 K562 cell membranes). Conditions: human Eotaxin-1 at human CCR3-Rezeptor; for inhibition at 1 µM: 1 μM test compound, read-out: CCR3 % inh @ 1 μM; for Ki: dose range 0.1 to 10000 nM. On the procedure: The CCR3 receptor binding test is based on a K562 cell line (leukemia myelogenic blast cells) transfected with the human chemokine receptor CCR3 (hCCR3-C1 cells). The cell membranes were prepared by disrupting the hCCR3-C1 cells by […]. The preparation was centrifuged at 400 g 4° C. for 30 min. The supernatant was transferred into fresh tubes followed by a second centrifugation at 48000 g, 4° C. for 1 h. The membranes were re-suspended in the SPA incubation buffer (25 mM HEPES, 25 mM MgCl2 6×H2O, 1 mM CaCl2 2×H2O) without bovine serum albumin and homogenized by passing through a single use needle (Terumo, 23Gx1″). The membranes were stored in aliquots at −80° C.
The CCR3 receptor binding assay was performed in a Scintillation Proximity Assay (SPA) design with the radioligand recombinant human ^125Iodine-eotaxin-1. Cell membranes of hCCR3 C1 cells were again homogenized by passing through a single use needle (Terumo, 23Gx1″) and diluted in SPA incubation buffer in suitable concentrations (0.5-10 μg protein/well) in 96 well microtiter plates (1450-514, Perkin Elmer). The SPA assay was set up in the SPA incubation buffer with a final volume of 200 μl and final concentration of 25 mM HEPES, 25 mM MgCl2 6×H2O, 1 mM CaCl2 2×H2O and 0.1% bovine serum albumin. The SPA assay mixture contained 60 μl of the membrane suspension, 80 μl of Wheat Germ Agglutinin coated PVT beads (organic scintillator, GE Healthcare, RPNQ-0001) 0.2 mg/well), 40 μl of recombinant human ^125Jodine-eotaxin-1 (Biotrend), diluted in SPA buffer to a final concentration of 30.000 dpm per well, and 20 μl of the test compound (dissolved in DMSO dilutions). The SPA assay mixture was incubated for 2 h at room temperature. Bound radioactivity was determined with a scintillation counter (Micro Beta “Trilux”, Wallac). Included were controls for total binding (no displacer added, Bo) and non-specific binding (NSB) by adding unlabelled recombinant human Eotaxin-1 (Biotrend, Cat #300-21) or a reference compound.
Determination of the affinity of a test compound was calculated by subtraction of the non-specific binding (NSB) from the total binding (Bo) or the binding in the presence of the test compound (B) at a given compound concentration. […] The Bo-NSB value was set to 0% inhibition.
% inhibition and Ki values are (human Eotaxin-1 at human CCR3-Rezeptor): […]

By Ki is commonly meant a measure of affinity in units of concentration, obtained from inhibition or displacement. Low values mean tighter binding, high ones weaker binding. Consider `CNC(=O)c1cc(C)nc(NC(=O)[C@H]2CCC(=O)N2C2CCN(Cc3ccc(Cl)c(C)c3)CC2)c1` [Example 150], for which the inhibition at 1 µM was determined as 97% and the Ki was determined as 10 nM.

With `COC(=O)c1cc(NC(=O)[C@H]2CCC(=O)N2C2CCN(Cc3ccc(Cl)c(C)c3)CC2)cn1C` [Example 94], the inhibition at 1 µM is 94% and the Ki amounted to 52 nM.

Take `Cc1nccc(-c2cccc(NC(=O)[C@H]3CCC(=O)N3C3CCN(Cc4ccc(Cl)c(C)c4)CC3)c2)n1` [Example 24]: the inhibition at 1 µM came out at 99% and the Ki was 22 nM.

As to `Cc1cc(CN2CCC(N3C(=O)CC[C@@H]3C(=O)Nc3cccc(C(=O)NC[C@@H]4CCCO4)c3)CC2)ccc1Cl` [Example 162], the inhibition at 1 µM is 97% and the Ki was found to be 20 nM.

As for `Cc1cc(CN2CCC(N3C(=O)CC[C@@H]3C(=O)Nc3cccc(N4CCCCC4)c3)CC2)ccc1Cl` [Example 19], the inhibition at 1 µM came to 98% and the affinity corresponds to a Ki of 7 nM.

For `CCn1cc(NC(=O)[C@H]2CCC(=O)N2C2CCN(Cc3ccc(Cl)c(C)c3)CC2)cc1C(=O)OC` [Example 91], the inhibition at 1 µM is 98% and the Ki was 18 nM.

Regarding `CCOC(=O)c1cc(NC(=O)[C@H]2CCC(=O)N2C2CCN(Cc3ccc(Cl)c(C)c3)CC2)no1` [Example 93], the inhibition at 1 µM stood at 95% and the Ki came out at 29 nM.

For the compound `Cc1cc(CN2CCC(N3C(=O)CC[C@@H]3C(=O)N3CCc4ccccc43)CC2)ccc1Cl` [Example 13], the inhibition at 1 µM was found to be 71% and the affinity corresponds to a Ki of 373 nM.

As to `Cc1cc(CN2CCC(N3C(=O)CC[C@@H]3C(=O)Nc3cccc(C(=O)NC(C)(C)C)c3)CC2)ccc1Cl` [Example 158], the inhibition at 1 µM was 100% and affinity was put at a Ki of 16 nM.

For the compound `Cc1cc(CN2CCC(N3C(=O)CC[C@@H]3C(=O)Nc3cc(C4CC4)nn3C)CC2)ccc1Cl` [Example 11], the inhibition at 1 µM is 92% and the affinity corresponds to a Ki of 27 nM.

Regarding `Cc1cc(-c2noc(C)n2)cc(NC(=O)[C@H]2CCC(=O)N2C2CCN(Cc3ccc(Cl)c(C)c3)CC2)n1` [Example 193], the inhibition at 1 µM was 99% and affinity was put at a Ki of 19 nM.

Regarding `Cc1cc(CN2CCC(N3C(=O)CC[C@@H]3C(=O)Nc3cccc(C(=O)NCC(F)F)c3)CC2)ccc1Cl` [Example 145], the inhibition at 1 µM came out at 99% and the Ki is 8 nM.

`Cc1cc(CN2CCC(N3C(=O)CC[C@@H]3C(=O)Nc3cc(-c4c(C)noc4C)ccn3)CC2)ccc1Cl` [Example 192] yielded an inhibition constant Ki of 6 nM.

As to `Cc1nccc(-c2cccc(NC(=O)[C@H]3CCC(=O)N3C3CC4CCC(C3)N4Cc3ccc(Cl)c(C)c3)c2)n1` (stereo partly shown) [Example 86], the inhibition at 1 µM came out at 65% and the Ki was determined as 419 nM.

Turning to `Cc1cc(CN2CCC(N3C(=O)CC[C@@H]3C(=O)Nc3cccc(C(=O)N(C)CCO)c3)CC2)ccc1Cl` [Example 159], the inhibition at 1 µM is 96% and the Ki was found to be 19 nM.

Take `Cc1cc(CN2CCC(N3C(=O)CC[C@@H]3C(=O)Nc3cccc(C(=O)NC4CCC4)c3)CC2)ccc1Cl` [Example 134]: the inhibition at 1 µM turned out to be 101% and the Ki was 3 nM.

For `COC(=O)c1ccc2c(c1)CCN(C(=O)[C@H]1CCC(=O)N1C1CCN(Cc3ccc(Cl)c(C)c3)CC1)C2` [Example 96], the inhibition at 1 µM was 51% and affinity was put at a Ki of 670 nM.

Consider `Cc1cc(CN2CCC(N3C(=O)CC[C@@H]3C(=O)Nc3cccc(N4CCN(C)C4=O)c3)CC2)ccc1Cl` [Example 18], for which the inhibition at 1 µM came out at 96% and the Ki came out at 7 nM.

For `Cc1cc(CN2CCC(N3C(=O)CC[C@H]3C(=O)N3Cc4ccccc4C(C)(C)C3)CC2)ccc1Cl` [Example 61], the inhibition at 1 µM was 57% and the Ki amounted to 492 nM.

Regarding `Cc1cc(CN2CCC(N3C(=O)CC[C@@H]3C(=O)Nc3cc(C(N)=O)cc(C(N)=O)c3)CC2)ccc1Cl` [Example 32], the inhibition at 1 µM is 82% and the Ki was 145 nM.

For `CNC(=O)c1cccc(NC(=O)[C@H]2CCC(=O)N2C2CCN(Cc3ccc(Cl)c(F)c3)CC2)c1` [Example 204], the inhibition at 1 µM stood at 80% and the affinity corresponds to a Ki of 299 nM.

For the compound `Cc1cc(CN2CCC(N3C(=O)CC[C@H]3C(=O)NCc3noc(C4CCCC4)n3)CC2)ccc1Cl` [Example 47], the inhibition at 1 µM was found to be 31% and the Ki is 1190 nM.

As to `CCNS(=O)(=O)c1cccc(NC(=O)[C@H]2CCC(=O)N2C2CCN(Cc3ccc(Cl)c(Cl)c3)CC2)c1` [Example 6], the inhibition at 1 µM came to 100% and the affinity corresponds to a Ki of 7 nM.

On to `Cc1cc(CN2CCC(N3C(=O)CC[C@@H]3C(=O)Nc3cc(Cl)cc(C(=O)N(C)C)c3)CC2)ccc1Cl` [Example 168], for which the inhibition at 1 µM came out at 99% and the Ki came to 4 nM.

In the case of `CCc1cc(C(=O)N(C)C)cc(NC(=O)[C@H]2CCC(=O)N2C2CCN(Cc3ccc(Cl)c(C)c3)CC2)n1` [Example 184], the inhibition at 1 µM was 100% and affinity was put at a Ki of 8 nM.

Consider `CNC(=O)c1cc(NC(=O)[C@H]2CCC(=O)N2C2CCN(Cc3ccc(Cl)c(C)c3)CC2)cc(C(F)(F)F)c1` [Example 2], for which the inhibition at 1 µM was 98% and the Ki came to 4 nM.

`CNC(=O)c1cccc(NC(=O)[C@@H]2CN(C)C(=O)N2C2CCN(Cc3ccc(Cl)c(C)c3)CC2)c1` [Example 127]: the inhibition at 1 µM is 90% and the affinity corresponds to a Ki of 81 nM.

Turning to `Cc1cc(CN2CCC(N3C(=O)CC[C@@H]3C(=O)Nc3cccc(C(=O)N4CCCC4)c3)CC2)ccc1Cl` [Example 146], the inhibition at 1 µM worked out at 100% and the inhibition constant (Ki) was 8 nM.

On to `Cc1cc(CN2CCC(N3C(=O)CC[C@@H]3C(=O)Nc3cccc(C(=O)NC4CC4)c3)CC2)ccc1Cl` [Example 148], for which the inhibition at 1 µM stood at 99% and affinity was put at a Ki of 10 nM.

Take `Cc1cc(CN2CCC(N3C(=O)CC[C@@H]3C(=O)Nc3cccc(N4CCNC4=O)c3)CC2)ccc1Cl` [Example 17]: the inhibition at 1 µM came to 100% and the affinity, expressed as Ki, was 5 nM.

As to `CNC(=O)c1cccc(NC(=O)[C@H]2CCC(=O)N2C2CCN(Cc3ccc(Cl)cc3)CC2)c1` [Example 201], the inhibition at 1 µM stood at 86% and affinity was put at a Ki of 119 nM.

As for `Cc1cc(CN2CCC(N3C(=O)CC[C@@H]3C(=O)Nc3cccc(C(=O)N4CCCCC4CO)c3)CC2)ccc1Cl` (stereo partly shown) [Example 153], the inhibition at 1 µM worked out at 99% and the affinity, expressed as Ki, was 12 nM.

For `CCNS(=O)(=O)c1cccc(NC(=O)[C@@H]2CCC(=O)N2C2CCN(Cc3ccc(Cl)c(C)c3)CC2)c1` [Example 12], the inhibition at 1 µM came to 84% and the Ki came to 88 nM.

With `Cc1cc(CN2CCC(N3C(=O)CC[C@@H]3C(=O)Nc3nc(C(C)C)c(C(=O)N(C)C)s3)CC2)ccc1Cl` [Example 189], the inhibition at 1 µM was determined as 100% and the Ki was 4 nM.

Regarding `CNC(=O)c1cc(C)cc(NC(=O)[C@H]2CCC(=O)N2C2CCN(Cc3ccc(Cl)c(C)c3)CC2)c1` [Example 142], the inhibition at 1 µM was 100% and the Ki stood at 17 nM.

Consider `Cc1cc(C(=O)N(C)C)cc(NC(=O)[C@H]2CCC(=O)N2C2CCN(Cc3ccc(Cl)c(C)c3)CC2)n1` [Example 135], for which the inhibition at 1 µM came out at 101% and affinity was put at a Ki of 3 nM.

Turning to `Cc1cc(CN2CCC(N3C(=O)CC[C@@H]3C(=O)NC3CCC(NS(=O)(=O)c4ccccc4)CC3)CC2)ccc1Cl` (stereo partly shown) [Example 29], the inhibition at 1 µM turned out to be 94% and the Ki amounted to 31 nM.

In the case of `Cc1cc(CN2CCC(N3C(=O)CC[C@H]3C(=O)NCc3ccnn3C)CC2)ccc1Cl` [Example 45], the inhibition at 1 µM was found to be 50%.

In the case of `CNC(=O)c1cc(F)cc(NC(=O)[C@H]2CCC(=O)N2C2CCN(Cc3ccc(Cl)c(C)c3)CC2)c1` [Example 177], the inhibition at 1 µM stood at 97% and the Ki was 24 nM.

The record behind these values is patent US8653075B2, “Therapeutic methods employing substituted piperidines which are CCR3 antagonists” (Boehringer Ingelheim International GmbH, priority 2009, dated 2014).
